According to patent US20240218022A1, “ANTI-VISTA MACROCYCLIC PEPTIDES AND COMPOSITIONS” (BRISTOL-MYERS SQUIBB COMPANY, priority 2022, published 2024):
Positions of bridges follow the written chain, without caps; N, C: chain ends. Non-standard residues stand in square brackets, D forms with d. Residues, ends and D or L forms follow the SMILES beside them. ξ: configuration not given here. NMeIle(3ξ) = CCC(C)[C@H](NC)C(=O)O; Cit = NC(=O)NCCC[C@H](N)C(=O)O; NMeD = CN[C@@H](CC(=O)O)C(=O)O; NMeL = CN[C@@H](CC(C)C)C(=O)O; Ahp(2) = CCCCC[C@H](N)C(=O)O; NMeNle = CCCC[C@H](NC)C(=O)O; Tle = CC(C)(C)[C@H](N)C(=O)O; NHexGly = CCCCCCNCC(=O)O; Nle = CCCC[C@H](N)C(=O)O; Orn = NCCC[C@H](N)C(=O)O

Target: T1, mouse VISTA (mVISTA) (Mus musculus, UniProt Q9D659)
T1 construct: expressed in transfected cells; host or cells: Human embryonic kidney 293T cells
T1 sequence (Q9D659 33-308): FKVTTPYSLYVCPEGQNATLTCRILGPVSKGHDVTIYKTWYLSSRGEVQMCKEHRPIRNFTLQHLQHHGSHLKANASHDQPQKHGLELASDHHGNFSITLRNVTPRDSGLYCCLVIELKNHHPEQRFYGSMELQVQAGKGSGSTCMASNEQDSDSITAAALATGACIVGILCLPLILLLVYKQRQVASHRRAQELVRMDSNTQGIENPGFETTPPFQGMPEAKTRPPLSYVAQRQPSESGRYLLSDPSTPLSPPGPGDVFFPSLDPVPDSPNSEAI
Assay: Cell-Based Binding High-Content Assay For mVISTA (HC CBA mVISTA)
Settings: read-out: HC CBA mVISTA IC50
Method in brief: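 This high-content binding assay uses HEK293T cells expressing murine VISTA, measuring displacement of 2 nM biotinylated peptide by fluorescent streptavidin imaging. IC50 values come from four-parameter logistic fitting.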

| Compound | IC50 [µM] |
| --- | --- |
| CCCCCCN1CC(=O)N[C@@H](Cc2ccc(O)cc2)C(=O)N[C@@H](CC(C)C)C(=O)N[C@@H](CC(=O)O)C(=O)N[C@@H](CCCN)C(=O)N[C@@H](CC(C)C)C(=O)N[C@@H](CCCCC)C(=O)N2CCC[C@H]2C(=O)N[C@@H](C(C)C)C(=O)N[C@@H](CO)C(=O)N[C@H](C(=O)NCC(N)=O)CSCC(=O)N[C@@H](Cc2ccccc2)C(=O)N[C@@H](Cc2c[nH]c3ccccc23)C(=O)N[C@@H](CC(=O)O)C1=O [Example 1359] ({CH2CO}-FWD[NHexGly]YLD[Orn]L[Ahp(2)]PVSCG-NH2; thioether N-14) | 0.0171 |
| CCCCCCN1CC(=O)N[C@@H](Cc2ccc(O)cc2)C(=O)N[C@@H](CCCC)C(=O)N[C@@H](CC(N)=O)C(=O)N[C@@H](CCCNC(=N)N)C(=O)N[C@@H](CC(C)C)C(=O)N[C@@H](CCCCC)C(=O)N2CCC[C@H]2C(=O)N[C@@H](C(C)C)C(=O)N[C@@H](CCCNC(=N)N)C(=O)N[C@H](C(=O)NCC(=O)O)CSCC(=O)N[C@@H](Cc2ccccc2)C(=O)N[C@@H](Cc2c[nH]c3ccccc23)C(=O)N[C@@H](CC(=O)O)C1=O [Example 1360] ({CH2CO}-FWD[NHexGly]Y[Nle]NRL[Ahp(2)]PVRCG-OH; thioether N-14) | 0.0284 |
| CCCCCCN1CC(=O)N[C@@H](Cc2ccc(O)cc2)C(=O)N[C@@H](CCCC)C(=O)N[C@@H](CC(N)=O)C(=O)N[C@@H](CCCNC(=N)N)C(=O)N[C@@H](CC(C)C)C(=O)N[C@@H](CCCCC)C(=O)N2CCC[C@H]2C(=O)N[C@@H](C(C)C)C(=O)N[C@@H](CC(=O)O)C(=O)N[C@H](C(=O)NCC(=O)O)CSCC(=O)N[C@@H](Cc2ccccc2)C(=O)N[C@@H](Cc2c[nH]c3ccccc23)C(=O)N[C@@H](CC(=O)O)C1=O [Example 1361] ({CH2CO}-FWD[NHexGly]Y[Nle]NRL[Ahp(2)]PVDCG-OH; thioether N-14) | 0.0052 |
| CCCCCCN1CC(=O)N[C@@H](Cc2ccc(O)cc2)C(=O)N[C@@H](CCCC)C(=O)N[C@@H](CC(N)=O)C(=O)N[C@@H](CCCNC(N)=O)C(=O)N[C@@H](CC(C)C)C(=O)N[C@@H](CCCCC)C(=O)N2CCC[C@H]2C(=O)N[C@@H](C(C)C)C(=O)N[C@@H](CC(=O)O)C(=O)N[C@H](C(=O)NCC(=O)O)CSCC(=O)N[C@@H](Cc2ccccc2)C(=O)N[C@@H](Cc2c[nH]c3ccccc23)C(=O)N[C@@H](CC(=O)O)C1=O [Example 1363] ({CH2CO}-FWD[NHexGly]Y[Nle]N[Cit]L[Ahp(2)]PVDCG-OH; thioether N-14) | 0.004 |
| CCCCCCN1CC(=O)N[C@@H](Cc2ccc(O)cc2)C(=O)N[C@@H](CCCC)C(=O)N[C@@H](CC(N)=O)C(=O)N[C@@H](CCCNC(=N)N)C(=O)N[C@@H](CC(C)C)C(=O)N[C@@H](CCCCC)C(=O)N2CCC[C@H]2C(=O)N[C@@H](C(C)(C)C)C(=O)N[C@@H](CO)C(=O)N[C@H](C(=O)NCC(N)=O)CSCC(=O)N[C@@H](Cc2ccccc2)C(=O)N[C@@H](Cc2c[nH]c3ccccc23)C(=O)N[C@@H](CC(=O)O)C1=O [Example 1364] ({CH2CO}-FWD[NHexGly]Y[Nle]NRL[Ahp(2)]P[Tle]SCG-NH2; thioether N-14) | 0.044 |
| CCCCCCN1CC(=O)N[C@@H](Cc2ccc(O)cc2)C(=O)N[C@@H](CCCC)C(=O)N[C@@H](CC(=O)O)C(=O)N[C@@H](CCCN)C(=O)N[C@@H](CC(C)C)C(=O)N[C@@H](CCCCC)C(=O)N2CCC[C@H]2C(=O)N[C@@H](C(C)C)C(=O)N[C@@H](CC(=O)O)C(=O)N[C@H](C(=O)N[C@@H](CO)C(N)=O)CSCC(=O)N[C@@H](Cc2ccccc2)C(=O)N[C@@H](Cc2c[nH]c3ccccc23)C(=O)N[C@@H](CC(=O)O)C1=O [Example 1365] ({CH2CO}-FWD[NHexGly]Y[Nle]D[Orn]L[Ahp(2)]PVDCS-NH2; thioether N-14) | 0.0077 |
| CCCCCCN1CC(=O)N[C@@H](Cc2ccc(O)cc2)C(=O)N[C@@H](CCCC)C(=O)N[C@@H](CC(=O)O)C(=O)N[C@@H](CCCNC(=N)N)C(=O)N[C@@H](CC(C)C)C(=O)N[C@@H](CCCCC)C(=O)N2CCC[C@H]2C(=O)N[C@@H](C(C)C)C(=O)N[C@@H](CC(=O)O)C(=O)N[C@H](C(=O)N[C@@H](CO)C(N)=O)CSCC(=O)N[C@@H](Cc2ccccc2)C(=O)N[C@@H](Cc2c[nH]c3ccccc23)C(=O)N[C@@H](CC(=O)O)C1=O [Example 1366] ({CH2CO}-FWD[NHexGly]Y[Nle]DRL[Ahp(2)]PVDCS-NH2; thioether N-14) | 0.0116 |
| CCCCCCN1CC(=O)N[C@@H](Cc2ccc(O)cc2)C(=O)N[C@@H](CCCC)C(=O)N[C@@H](CC(N)=O)C(=O)N[C@@H](CCCNC(=N)N)C(=O)N(C)[C@@H](C(C)CC)C(=O)N[C@@H](CCCCC)C(=O)N2CCC[C@H]2C(=O)N[C@@H](C(C)C)C(=O)N[C@@H](CC(=O)O)C(=O)N[C@H](C(=O)NCC(=O)O)CSCC(=O)N[C@@H](Cc2ccccc2)C(=O)N[C@@H](Cc2c[nH]c3ccccc23)C(=O)N[C@@H](CC(=O)O)C1=O (stereo partly drawn) [Example 1367] ({CH2CO}-FWD[NHexGly]Y[Nle]NR[NMeIle(3ξ)][Ahp(2)]PVDCG-OH; thioether N-14) | 0.0111 |
| CCCCCCN1CC(=O)N[C@@H](Cc2ccc(O)cc2)C(=O)N[C@@H](CCCC)C(=O)N[C@@H](CC(N)=O)C(=O)N[C@@H](CCCNC(=N)N)C(=O)N(C)[C@@H](CC(=O)O)C(=O)N[C@@H](CCCCC)C(=O)N2CCC[C@H]2C(=O)N[C@@H](C(C)C)C(=O)N[C@@H](CC(=O)O)C(=O)N[C@H](C(=O)NCC(=O)O)CSCC(=O)N[C@@H](Cc2ccccc2)C(=O)N[C@@H](Cc2c[nH]c3ccccc23)C(=O)N[C@@H](CC(=O)O)C1=O [Example 1368] ({CH2CO}-FWD[NHexGly]Y[Nle]NR[NMeD][Ahp(2)]PVDCG-OH; thioether N-14) | 0.037 |
| CCCCCCN1CC(=O)N[C@@H](Cc2ccc(O)cc2)C(=O)N[C@@H](CCCC)C(=O)N[C@@H](CC(N)=O)C(=O)N[C@@H](CCCNC(=N)N)C(=O)N(C)[C@@H](CC(C)C)C(=O)N[C@@H](CCCCC)C(=O)N2CCC[C@H]2C(=O)N[C@@H](C(C)C)C(=O)N[C@@H](CC(=O)O)C(=O)N[C@H](C(=O)NCC(=O)O)CSCC(=O)N[C@@H](Cc2ccccc2)C(=O)N[C@@H](Cc2c[nH]c3ccccc23)C(=O)N[C@@H](CC(=O)O)C1=O [Example 1369] ({CH2CO}-FWD[NHexGly]Y[Nle]NR[NMeL][Ahp(2)]PVDCG-OH; thioether N-14) | 0.0035 |
| CCCCCCN1CC(=O)N[C@@H](Cc2ccc(O)cc2)C(=O)N[C@@H](CCCC)C(=O)N[C@@H](CC(N)=O)C(=O)N[C@@H](CCCNC(=N)N)C(=O)N(C)[C@@H](CC(C)C)C(=O)N[C@@H](CCCCC)C(=O)N2CCC[C@H]2C(=O)N[C@@H](C(C)C)C(=O)N[C@@H](CC(=O)O)C(=O)N[C@H](C(=O)N[C@@H](CO)C(=O)O)CSCC(=O)N[C@@H](Cc2ccccc2)C(=O)N[C@@H](Cc2c[nH]c3ccccc23)C(=O)N[C@@H](CC(=O)O)C1=O [Example 1370] ({CH2CO}-FWD[NHexGly]Y[Nle]NR[NMeL][Ahp(2)]PVDCS-OH; thioether N-14) | 0.0187 |
| CCCCCCN1CC(=O)N[C@@H](Cc2ccc(O)cc2)C(=O)N[C@@H](CCCC)C(=O)N[C@@H](CC(N)=O)C(=O)N[C@@H](CCCNC(=N)N)C(=O)N(C)[C@@H](CCCC)C(=O)N[C@@H](CCCCC)C(=O)N2CCC[C@H]2C(=O)N[C@@H](C(C)(C)C)C(=O)N[C@@H](CC(=O)O)C(=O)N[C@H](C(=O)N[C@@H](CC(=O)O)C(N)=O)CSCC(=O)N[C@@H](Cc2ccccc2)C(=O)N[C@@H](Cc2c[nH]c3ccccc23)C(=O)N[C@@H](CC(=O)O)C1=O [Example 1371] ({CH2CO}-FWD[NHexGly]Y[Nle]NR[NMeNle][Ahp(2)]P[Tle]DCD-NH2; thioether N-14) | 0.0366 |
| CCCCCCN1CC(=O)N[C@@H](Cc2ccc(O)cc2)C(=O)N[C@@H](CCCC)C(=O)N[C@@H](CC(=O)O)C(=O)N[C@@H](CCCN)C(=O)N(C)[C@@H](CCCC)C(=O)N[C@@H](CCCCC)C(=O)N2CCC[C@H]2C(=O)N[C@@H](C(C)(C)C)C(=O)N[C@@H](CC(=O)O)C(=O)N[C@H](C(=O)N[C@@H](CC(=O)O)C(N)=O)CSCC(=O)N[C@@H](Cc2ccccc2)C(=O)N[C@@H](Cc2c[nH]c3ccccc23)C(=O)N[C@@H](CC(=O)O)C1=O [Example 1372] ({CH2CO}-FWD[NHexGly]Y[Nle]D[Orn][NMeNle][Ahp(2)]P[Tle]DCD-NH2; thioether N-14) | 0.0164 |
| CCCCCCN1CC(=O)N[C@@H](Cc2ccc(O)cc2)C(=O)N[C@@H](CCCC)C(=O)N[C@@H](CC(N)=O)C(=O)N[C@@H](CCCN)C(=O)N(C)[C@@H](CCCC)C(=O)N[C@@H](CCCCC)C(=O)N2CCC[C@H]2C(=O)N[C@@H](C(C)(C)C)C(=O)N[C@@H](CC(=O)O)C(=O)N[C@H](C(=O)N[C@@H](CC(=O)O)C(N)=O)CSCC(=O)N[C@@H](Cc2ccccc2)C(=O)N[C@@H](Cc2c[nH]c3ccccc23)C(=O)N[C@@H](CC(=O)O)C1=O [Example 1373] ({CH2CO}-FWD[NHexGly]Y[Nle]N[Orn][NMeNle][Ahp(2)]P[Tle]DCD-NH2; thioether N-14) | 0.0148 |
| CCCCCCN1CC(=O)N[C@@H](Cc2ccc(O)cc2)C(=O)N[C@@H](CCCC)C(=O)N[C@@H](CC(N)=O)C(=O)N[C@@H](CCCN)C(=O)N(C)[C@@H](CCCC)C(=O)N[C@@H](CCCCC)C(=O)N2CCC[C@H]2C(=O)N[C@@H](C(C)(C)C)C(=O)N[C@@H](CO)C(=O)N[C@H](C(=O)N[C@@H](CC(=O)O)C(N)=O)CSCC(=O)N[C@@H](Cc2ccccc2)C(=O)N[C@@H](Cc2c[nH]c3ccccc23)C(=O)N[C@@H](CC(=O)O)C1=O [Example 1374] ({CH2CO}-FWD[NHexGly]Y[Nle]N[Orn][NMeNle][Ahp(2)]P[Tle]SCD-NH2; thioether N-14) | 0.0249 |
